Calls of active or inactive are those of the source. The rule behind the calls is not given here.
How the values were obtained:
[1] = test system: Rattus norvegicus; experiment: Antihyperglycemic activity against sucrose loaded Charles Foster/Wistar albino rat assessed as reduction in blood glucose level at 100 mg/kg, po administered 30 mins before sucrose challenge by glucometer; format: functional; set-up: scale not given: the % may be the effect or the level left
[2] = biological target: T1, Glucose-6-phosphatase catalytic subunit 1 (Homo sapiens) (UniProt P35575); experiment: Inhibition of glucose-6-phosphatase at 100 uM
T1 sequence (whole entry): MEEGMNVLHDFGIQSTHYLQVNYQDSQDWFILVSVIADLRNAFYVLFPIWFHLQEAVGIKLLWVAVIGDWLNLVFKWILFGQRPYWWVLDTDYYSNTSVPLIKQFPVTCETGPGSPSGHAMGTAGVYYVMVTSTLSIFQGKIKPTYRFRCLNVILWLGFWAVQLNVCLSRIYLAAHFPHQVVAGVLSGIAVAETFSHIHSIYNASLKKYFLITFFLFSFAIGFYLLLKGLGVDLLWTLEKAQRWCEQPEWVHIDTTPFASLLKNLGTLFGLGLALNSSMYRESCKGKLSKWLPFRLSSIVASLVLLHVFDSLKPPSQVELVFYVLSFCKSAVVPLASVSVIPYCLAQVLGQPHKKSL

[3] = Inhibition of glycogen phosphorylase at 100 uM
[4] = Inhibition of alpha-glucosidase at 100 uM
[5] = biological target: Dipeptidyl peptidase 4 (Homo sapiens) (UniProt P27487); experiment: Inhibition of DPP4 at 100 uM
Dipeptidyl peptidase 4 (Homo sapiens), sequence (P27487 whole entry, looked up): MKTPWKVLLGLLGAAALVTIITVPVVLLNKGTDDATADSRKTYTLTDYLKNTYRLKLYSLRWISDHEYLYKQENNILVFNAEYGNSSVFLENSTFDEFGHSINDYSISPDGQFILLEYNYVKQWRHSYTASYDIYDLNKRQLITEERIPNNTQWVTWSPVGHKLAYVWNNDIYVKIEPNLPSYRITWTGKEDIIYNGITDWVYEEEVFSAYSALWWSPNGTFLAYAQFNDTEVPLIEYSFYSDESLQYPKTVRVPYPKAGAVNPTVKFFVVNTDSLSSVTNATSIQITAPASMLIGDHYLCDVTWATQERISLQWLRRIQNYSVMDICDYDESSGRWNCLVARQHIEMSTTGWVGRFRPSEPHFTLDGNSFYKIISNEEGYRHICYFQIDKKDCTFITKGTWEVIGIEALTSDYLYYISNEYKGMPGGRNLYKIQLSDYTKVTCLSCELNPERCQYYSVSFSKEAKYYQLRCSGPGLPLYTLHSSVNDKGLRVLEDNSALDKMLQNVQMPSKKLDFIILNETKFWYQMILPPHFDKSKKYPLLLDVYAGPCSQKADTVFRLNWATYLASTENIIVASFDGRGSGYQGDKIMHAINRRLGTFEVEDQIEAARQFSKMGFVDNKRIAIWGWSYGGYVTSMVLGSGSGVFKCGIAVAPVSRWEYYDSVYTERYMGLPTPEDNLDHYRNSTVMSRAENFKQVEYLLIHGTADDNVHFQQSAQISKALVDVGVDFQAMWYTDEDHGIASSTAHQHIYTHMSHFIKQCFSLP

[6] = biological target: T2, Tyrosine-protein phosphatase non-receptor type 1 (Homo sapiens) (UniProt P18031); experiment: Inhibition of PTP1B at 100 uM
T2 sequence (whole entry): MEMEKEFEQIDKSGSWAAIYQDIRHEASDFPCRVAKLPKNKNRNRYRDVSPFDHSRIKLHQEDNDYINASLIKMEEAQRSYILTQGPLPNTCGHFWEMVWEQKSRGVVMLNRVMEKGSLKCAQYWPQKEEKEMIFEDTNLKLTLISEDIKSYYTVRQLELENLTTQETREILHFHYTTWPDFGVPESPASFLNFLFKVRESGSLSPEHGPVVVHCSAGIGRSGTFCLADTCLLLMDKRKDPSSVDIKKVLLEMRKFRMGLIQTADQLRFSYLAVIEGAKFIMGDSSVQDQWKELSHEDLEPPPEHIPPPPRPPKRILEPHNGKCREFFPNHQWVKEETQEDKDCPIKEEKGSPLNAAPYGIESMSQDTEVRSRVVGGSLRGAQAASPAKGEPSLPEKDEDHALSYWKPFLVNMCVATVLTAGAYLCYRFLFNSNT

[7] = test system: Rattus norvegicus; experiment: Antihyperglycemic activity against sucrose challenged streptozotocin-induced diabetic Sprague-Dawley albino rat assessed as reduction of AUC of plasma glucose level at 100 mg/kg, po after 1 to 5 hrs administered 30 mins before sucrose challenge by glucometer; format: functional; set-up: scale not given: the % may be the effect or the level left
[8] = test system: Rattus norvegicus; experiment: Antihyperglycemic activity against sucrose challenged streptozotocin-induced diabetic Sprague-Dawley albino rat assessed as reduction of AUC of plasma glucose level at 100 mg/kg, po after 1 to 24 hrs administered 30 mins before sucrose challenge by glucometer; format: functional; set-up: scale not given: the % may be the effect or the level left
[9] = test system: Mus musculus; experiment: Antihyperglycemic activity in C57BL/Ks db/db mouse assessed as reduction in postprandial hyperglycemia at 30 mg/kg, po measured for 10 days post dose relative to control; format: functional; set-up: scale not given: the % may be the effect or the level left
[10] = test system: Mus musculus; experiment: Antihyperglycemic activity in C57BL/Ks db/db mouse assessed as reduction in blood glucose level at 30 mg/kg/day, po measured on day 6 post dose by postprandial oral glucose tolerance test relative to control; format: functional; set-up: scale not given: the % may be the effect or the level left
[11] = test system: Mus musculus; experiment: Antihyperglycemic activity in C57BL/Ks db/db mouse assessed as reduction in blood glucose level at 30 mg/kg/day, po measured day 10 post dose by postprandial oral glucose tolerance test relative to control; format: functional; set-up: scale not given: the % may be the effect or the level left
[12] = test system: Mus musculus; experiment: Antidyslipidemic activity in C57BL/Ks db/db mouse assessed as reduction in plasma triglyceride level at 30 mg/kg/day, po relative to control; format: functional; set-up: scale not given: the % may be the effect or the level left
[13] = test system: Mus musculus; experiment: Antidyslipidemic activity in C57BL/Ks db/db mouse assessed as reduction in plasma total cholesterol at 30 mg/kg/day, po relative to control; format: functional; set-up: scale not given: the % may be the effect or the level left
[14] = test system: Mus musculus; experiment: Antidyslipidemic activity in C57BL/Ks db/db mouse assessed as increase in HDL-cholesterol at 30 mg/kg/day, po relative to control; format: functional
[15] = test system: Mus musculus; experiment: Antihyperglycemic activity in C57BL/Ks db/db mouse assessed as reduction in insulin level at 30 mg/kg/day, po relative to control; format: functional; set-up: scale not given: the % may be the effect or the level left
[16] = test system: Mus musculus; experiment: Antiobesity activity in C57BL/Ks db/db mouse assessed as reduction in body weight change at 30 mg/kg/day, po measured for 10 days relative to control; format: functional, organism-based
[17] = test system: Mus musculus; experiment: Reduction in food intake in C57BL/Ks db/db mouse at 30 mg/kg/day, po measured from day 3 to day 10; format: functional, organism-based
[18] = biological target: T3, Tyrosine-protein phosphatase non-receptor type 1 (Homo sapiens, UniProt P18031); experiment: Inhibition of PTP1B
T3 sequence (P18031 whole entry): T2 sequence (whole entry)

SMILES	inhibition [2] [%]	inhibition [3] [%]	inhibition [4] [%]	inhibition [5] [%]	inhibition [6] [%]	IC50 [18] [µM]	Activity [1] [%]	Activity [7] [%]	Activity [8] [%]	Activity [9] [%]	Activity [10] [%]	Activity [11] [%]	Activity [12] [%]	Activity [13] [%]	Activity [14] [%]	Activity [15] [%]	Activity [16]	Activity [17]
CCOC(=O)C(CCCOc1cccc(OCCCNc2ccc(C)cc2)c1C(=O)CC)C(=O)OCC	< 5	< 5	11.8	< 5	42.6		8.49											
COc1ccc(Cl)cc1C(=O)NCCc1ccc(S(=O)(=O)NC(=O)NC2CCCCC2)cc1 [GLYBURIDE]							32.3											
CCOC(=O)C(CCCOc1cccc(OCCN(CC)CC)c1C(=O)CC)C(=O)OCC	< 5	22.9	< 5	< 5	40.4		17											
CCC(=O)c1c(O)cccc1OCCCNc1ccc(OC)cc1	< 5	23	19.3	13.7	83.6	8.3	54.6	22.1	22.8	23.9	28.4	29.9	22	14.8	7.2	23.6	Active	Active
CCOC(=O)C(CCCOc1cccc(OCCN(C)C)c1C(=O)CC)C(=O)OCC	< 5	< 5	< 5	< 5	51.1	20.4	11.5											
CN(C)C(=N)NC(=N)N [METFORMIN]							18.9											
CCC(=O)c1c(O)cccc1OCCN(CC)CC	11.6	< 5	19.3	< 5	28.8		38.4	23	20.4									
CCC(=O)c1c(O)cccc1OCCCNc1ccc(C)cc1	18.9	< 5	18.9	< 5	79.8	12.5	28.7	3.02	2.02									
CN(CCOc1ccc(CC2SC(=O)NC2=O)cc1)c1ccccn1 (centres undefined) [ROSIGLITAZONE]										51.3	33.9	46.5						
CCCCN(C)CCCOc1cccc(O)c1C(=O)CC	17.3	< 5	< 5	< 5	31.9		23.8	27.5	21.5	39.6	26.7	33.6	23.8	20.4	4.03	27.7	Active	Active
CCOC(=O)C(CCCOc1cccc(OCCN2CCCCC2)c1C(=O)CC)C(=O)OCC	< 5	< 5	< 5	< 5	19.6		16.4											

Now from value to compound, other results behind:

inhibition [2] [%]	inhibition [3] [%]	inhibition [4] [%]	inhibition [5] [%]	inhibition [6] [%]	IC50 [18] [µM]	SMILES	Activity [1] [%]	Activity [7] [%]	Activity [8] [%]	Activity [9] [%]	Activity [10] [%]	Activity [11] [%]	Activity [12] [%]	Activity [13] [%]	Activity [14] [%]	Activity [15] [%]	Activity [16]	Activity [17]
13.6	19.5	< 5	25.6	42.1		CCC(=O)c1c(O)cccc1OCCCN1CCCC1	26.8	16.9	14.8									
18.3	24.8	< 5	17.4	52.1	19.2	CCCCNCCCOc1cccc(O)c1C(=O)CC	11											
< 5	< 5	< 5	< 5	31.8		CCC(=O)c1c(O)cccc1OCCCN1CCCCC1	33.2	10.2	8.6									
< 5	13.7	28.9	< 5	36.4		CCC(=O)c1c(O)cccc1OCCN1CCCC1	21.08											
21.3	< 5	< 5	< 5	27.5		CCC(=O)c1c(O)cccc1OCCN1CCCCC1	40.4	29.2	19.7									
11.3	< 5	18.4	24.2	19.3		CCC(=O)c1c(O)cccc1OCCN(C)C	19.45	12.1	7.4									
13.9	< 5	< 5	18.3	58.6	18.6	CCOC(=O)C(CCCOc1cccc(OCCN2CCCC2)c1C(=O)CC)C(=O)OCC	22.9											

Reference: ChEMBL document CHEMBL2203240, “Synthesis of propiophenone derivatives as new class of antidiabetic agents reducing body weight in db/db mice” (Bioorg Med Chem, 2012)
